Data published in PMC7822874, “Chemoprotective antimalarials identified through quantitative high-throughput screening of Plasmodium blood and liver stage parasites” (Scientific Reports, 2021).
Like-named read-outs stand apart in the source and are kept apart here.

Columns and labels:
in vitro [1] = conditions: human, HepG2-A16-CD81EGFP cells, uninfected
HepG2 = conditions: human, hepg2 cells, 48 h
[2] = system: Plasmodium falciparum Dd2 asexual blood stage parasites; experiment: microbe, parasite or virus in culture; design: species or system Plasmodium falciparum Dd2 in human erythrocytes; single determination (one 11-point concentration-response curve); conditions: Plasmodium falciparum, DD2, Erythrocyte, 72 h; read-out: AC50
in vitro [3] = conditions: human, hepg2 cells
[4] = system: P. berghei-ANKA-GFP-LucCON liver stage parasites in HepG2-A16-CD81EGFP cells; experiment: P. berghei liver stage Pb-Luc assay, Method 1 (UCSD, 1536-well); type: cell-based, Plasmodium berghei; conditions: for activity at 1 µM / activity at 3 µM: Plasmodium berghei, 48 h, average of 2 wells on a 1536 well plate
HepG2-A16-CD81EGFP cells = conditions: average of 2 wells; for HepG2 1uM growth rep1 / HepG2 1uM growth rep2: HepG2, 1 µM compound treatment (10 mM stocks); for HepG2 1uM growth rep1 / HepG2 3uM growth rep1: replicate 1, normalized; for HepG2 1uM growth rep2 / HepG2 3uM growth rep2: replicate 2, normalized; for HepG2 3uM growth rep1 / HepG2 3uM growth rep2: HepG2, 3 µM compound treatment (10 mM stocks)
[5] = 1 uM (compounds provided at 10 mM), column 11, read-out: Pb-Luc (P. berghei liver stage), % of control, lower concentration, first repeat
[6] = 1 uM (compounds provided at 10 mM), column 12, read-out: Pb-Luc (P. berghei liver stage), % of control, lower concentration, second repeat
[7] = 3 uM (compounds provided at 10 mM), column 8, read-out: Pb-Luc (P. berghei liver stage), % of control, higher concentration, first repeat
[8] = 3 uM (compounds provided at 10 mM), column 9, read-out: Pb-Luc (P. berghei liver stage), % of control, higher concentration, second repeat
[9] = P. berghei liver stage, 1 µM compound treatment (10 mM stocks), replicate 1, normalized, read-out: PbLuc 1uM growth rep1
[10] = P. berghei liver stage, 1 µM compound treatment (10 mM stocks), replicate 2, normalized, read-out: PbLuc 1uM growth rep2
[11] = P. berghei liver stage, 3 µM compound treatment (10 mM stocks), replicate 1, normalized, read-out: PbLuc 3uM growth rep1
[12] = P. berghei liver stage, 3 µM compound treatment (10 mM stocks), replicate 2, normalized, read-out: PbLuc 3uM growth rep2

| Compound | viability at 48 h, 1 µM (in vitro [1]) [%] | viability at 48 h, 3 µM (in vitro [1]) [%] | Log AC50 (M) (HepG2) | AC50 [2] [µM] | CC50 at 48 h (in vitro [3]) [µM] | activity at 1 µM [4, 5] [%] | activity at 1 µM [4, 6] [%] | activity at 3 µM [4, 7] [%] | activity at 3 µM [4, 8] [%] | activity at 1 µM [4, 9] [%] | activity at 1 µM [4, 10] [%] | activity at 3 µM [4, 11] [%] | activity at 3 µM [4, 12] [%] | HepG2 1uM growth rep1 (HepG2-A16-CD81EGFP cells) [%] | HepG2 1uM growth rep2 (HepG2-A16-CD81EGFP cells) [%] | HepG2 3uM growth rep1 (HepG2-A16-CD81EGFP cells) [%] | HepG2 3uM growth rep2 (HepG2-A16-CD81EGFP cells) [%] | viability at 66 h (in vitro [1]) [%] | Max Resp (signal direction of the dose response) ([4]; Method 1, Decrease = decreasing P. berghei viability with dose, Increase = increasing signal, Inactive = no dose response) |
| --- | --- | --- | --- | --- | --- | --- | --- | --- | --- | --- | --- | --- | --- | --- | --- | --- | --- | --- | --- |
| Cc1cc(Cl)c(S(=O)(=O)N2CCN(c3ccccn3)CC2)cc1OCC(=O)NC1CCCCC1 [MLS000693481-01] | 91 | 105 | -4.5643 | 0.668 | 27.3 | 102 | 96 | 68 | 80 | – | – | – | – | – | – | – | – | – | – |
| O=C1NC(=S)S/C1=C\C=C\c1ccc([N+](=O)[O-])o1 [MLS000722913-01] | 112 | 101 | -4.8643 | 5.31 | 13.7 | 80 | 77 | 57 | 67 | – | – | – | – | – | – | – | – | – | – |
| CCCN(CCC)CCCN=C(S)Nc1ccc2nc(N3CCCC3)cc(C)c2c1 [MLS000730709-01] | 112 | 103 | -4.3643 | – | 43.2 | 141 | 128 | 67 | 66 | – | – | – | – | – | – | – | – | – | – |
| NS(=O)(=O)c1ccc(N/N=C/c2cn(-c3ccccc3)nc2-c2cccs2)cc1 [MLS000393371-01] | – | – | -4.6643 | 0.335 | 21.7 | – | – | – | – | 80 | 57 | 26 | 21 | 92 | 91 | 94 | 94 | – | – |
| COc1ccc2nc3cc(Cl)ccc3c(Nc3cc(C(C)C)c(O)cc3C)c2c1 [MLS000737404-01] | 112 | 95 | -4.3643 | 0.266 | 43.2 | 113 | 97 | 61 | 53 | – | – | – | – | – | – | – | – | – | – |
| N#Cc1ccc(NC(=O)Nc2ccc(Cl)cc2)cc1 [MLS000104525-01] | – | – | -4.4643 | 5.31 | 34.3 | – | – | – | – | 86 | 61 | 6.45 | 7 | 95 | 87 | 72 | 84 | – | – |
| COc1ccccc1CNCC(O)Cn1c2ccccc2c2ccccc21 (stereo not shown) [MLS000391556-01] | – | – | -4.4643 | – | 34.3 | – | – | – | – | 115 | 98 | 107 | 96 | 97 | 92 | 92 | 93 | – | – |
| Cc1cccc(-c2cc3nc(C)c(C)c(NCCCn4ccnc4)n3n2)c1 [MLS000529525-01] | – | – | -4.3143 | 5.31 | 48.5 | – | – | – | – | 138 | 123 | 94 | 144 | 101 | 92 | 82 | 93 | – | – |
| CCOc1cccc(CNCCc2c(C)[nH]c3ccc(OC(F)(F)F)cc23)c1O.O=C(O)C(=O)O [MLS001198351-01] | – | – | -4.4643 | 2.37 | 34.3 | – | – | – | – | 46 | 47 | 9 | 16 | 97 | 92 | 70 | 71 | – | – |
| C/C(=N\Nc1ncnc2sc(C)c(C)c12)c1ccccn1 [MLS001176565-01] | – | – | -6.3143 | 1.33 | 0.485 | – | – | – | – | 11 | 8 | 6 | 5 | 55 | 50 | 36 | 44 | – | – |
| Cc1cc(N)c2cc(NC(=O)/C=C/c3ccccc3Cl)ccc2n1 [MLS000737665-01] | 105 | 108 | -4.3643 | 1.88 | 43.2 | 86 | 67 | 21 | 37 | – | – | – | – | – | – | – | – | – | – |
| Cc1cccc(NC2=C/C(=N\S(=O)(=O)c3cccs3)c3ccccc3C2=O)c1 [MLS000585840-01] | 113 | 95 | -4.4643 | 0.168 | 34.3 | 90 | 90 | 37 | 41 | – | – | – | – | – | – | – | – | – | – |
| Cc1cc(O)c(-c2cc(C(=O)Nc3sc4c(c3C(=O)NCc3ccco3)CCC4)[nH]n2)cc1C [MLS000331999-01] | – | – | -4.4643 | – | 34.3 | – | – | – | – | – | – | – | – | – | – | – | – | 106 | Inactive |
| ClC(Cl)(Cl)c1nc2ccccc2n2nncc12 [MLS001171504-01] | 106 | 95 | -4.3643 | 2.11 | 43.2 | 113 | 83 | 87 | 102 | – | – | – | – | – | – | – | – | – | – |
| N=c1c2c(n(Cc3ccc(F)cc3)c3c1CCC3)CCCC2 [MLS000856097-01] | 105 | 81 | -4.7643 | 2.99 | 17.2 | 60 | 59 | 19 | 15 | – | – | – | – | – | – | – | – | – | – |
| CC(C)CN(Cc1cc(=O)oc2cc(-c3ccccc3)c(O)cc12)CC(C)C [MLS000779012-01] | 98 | 101 | -4.3643 | – | 43.2 | 87 | 88 | 59 | 60 | – | – | – | – | – | – | – | – | – | – |
